Assay results as given in PubChem BioAssay (NCI).
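The compound was tested at five concentrations on cells cultured in 96-well plates, with a 48-hour exposure period. GI50 = concentration required for 50% inhibition of growth. TGI denotes the concentration required for complete inhibition of growth.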

Tests used:
Test in all cases: NCI tumour cell line growth inhibition, 48 h
HCC-2998 colon = tested on: HCC-2998 colon
K-562 leukemia = tested on: K-562 leukemia
PC-3 prostate = tested on: PC-3 prostate
IGROV1 ovarian = tested on: IGROV1 ovarian
NCI-H522 lung = tested on: NCI-H522 lung
COLO 205 colon = tested on: COLO 205 colon
U251 CNS = tested on: U251 CNS
DU-145 prostate = tested on: DU-145 prostate
OVCAR-5 ovarian = tested on: OVCAR-5 ovarian
LOX IMVI melanoma = tested on: LOX IMVI melanoma

| SMILES | GI50 (HCC-2998 colon) [µM] | TGI (HCC-2998 colon) [µM] | GI50 (K-562 leukemia) [µM] | TGI (K-562 leukemia) [µM] | GI50 (PC-3 prostate) [µM] | TGI (PC-3 prostate) [µM] | GI50 (IGROV1 ovarian) [µM] | GI50 (NCI-H522 lung) [µM] | TGI (NCI-H522 lung) [µM] | GI50 (COLO 205 colon) [µM] | TGI (COLO 205 colon) [µM] | GI50 (U251 CNS) [µM] | TGI (U251 CNS) [µM] | GI50 (DU-145 prostate) [µM] | TGI (DU-145 prostate) [µM] | GI50 (OVCAR-5 ovarian) [µM] | TGI (OVCAR-5 ovarian) [µM] | GI50 (LOX IMVI melanoma) [µM] | TGI (LOX IMVI melanoma) [µM] | TGI (IGROV1 ovarian) [µM] |
| --- | --- | --- | --- | --- | --- | --- | --- | --- | --- | --- | --- | --- | --- | --- | --- | --- | --- | --- | --- | --- |
| COc1ccc2c(c1)O/C(=C\c1ccc([N+](=O)[O-])s1)C2=O | 2.91 | > 100 | 0.285 | 1.31 | 1.81 | > 100 | 1.14 | 0.241 | 0.738 | 1.88 | > 100 | 2.07 | > 20.9 | 2.53 | > 24.8 |  |  |  |  |  |
| COC(=O)C1=C(O)C(C(=O)OC)[C@@]2(O)[C@@H](C(=O)OC)C(c3ccccc3Cl)C[C@@H]1[C@@H]2C(=O)OC (stereo not given in full) | 14 | 28.6 | 3.76 | > 100 | 5.88 | 36.5 | 3.52 | 3.16 | 12.8 | 14.1 | 31.5 | 3.76 | 15 | 14.9 | 32.9 | 15 | 32.4 | 4.43 | 17 | 13 |
| CCCCCCCCC(=O)NCCN(CCN)C(=O)CCCCCCCC |  | 24.3 |  | 8.27 |  | 25 |  |  | 7.21 |  | 6.72 |  | 9.26 |  | 27.9 |  | 30.5 |  | 9.06 | 19.5 |
| COn1cc(C(=O)N=C(SC)SC)c2ccccc21 | 19.8 | 36.8 | 2.29 | 17.5 | 25.1 | > 100 | 11.8 | 13.1 | 42 | 30.2 | > 100 | 22.3 | 70.6 | 30.9 | > 100 | 26.2 | 73.7 | 17.6 | 50.6 | 55.5 |
| CN1CCN(Cc2ccc(NC(=O)c3[nH]ncc3Nc3cc(OC4CCCC4)ncn3)cc2)CC1 | 3.1 | 10.5 | 1.64 | 13.3 | 2.26 | 11.1 | 1.75 | 2.15 | 7.91 | 1.24 | 3.11 | 3.38 | 12.7 | 2.35 | 12.9 | 2.79 | 7.12 | 1.63 | 3.83 | 10.8 |
| CCN1C(=O)N(CC)C2C1NN=c1s/c(=C\c3cnc(C)n3C)c(=O)n12 (stereo not given) | 2.65 | 14.5 | 0.61 | > 100 | 2.07 | > 100 | 4.37 | 1.33 | 4.34 | 1.63 | 4.88 | 2.83 | > 100 | 2.51 | > 100 | 3.68 | > 100 | 4.43 | > 100 | > 100 |
| O=C(O)CSc1nnc2c3ccccc3c3ccccc3c2n1 |  | > 100 |  | > 100 |  | > 100 |  |  | > 100 |  | > 100 |  | > 100 |  | > 100 |  | > 100 |  | > 100 | > 100 |
| CC(=O)N1c2ccc(-c3ccc(C(=O)O)cc3)cc2[C@H](Nc2ccc(Cl)cc2)C[C@@H]1C | 0.371 | 7.81 | 0.168 | > 55.2 | 1.24 | 28.7 | 0.531 | 0.0637 | 11.5 | 0.0615 | 12.8 | 1.55 | 32.9 | 12.1 | > 100 | 1.45 | > 46.6 | 0.0628 | 3.48 | 64.9 |
| CN1C(=O)C(C)(C)Oc2c(-c3cn(C)c(=O)c4[nH]ccc34)cc(S(C)(=O)=O)cc21 | 1.24 | 2.86 | 0.765 | > 100 | 2.01 | > 100 | 0.89 | 0.383 | 5 | 0.469 | 10.5 | 1.52 | > 100 | 3.85 | > 100 | 1.06 | > 100 | 0.462 | 1.73 | > 100 |
| O=C(N/N=C/c1cccc(O)c1)c1ccc(C(F)(F)F)nc1Nc1cccc(C(F)(F)F)c1 | 1.02 | 3.42 | 1.19 | 2.69 | 1.66 | 7.67 | 2.65 | 1.67 | 6.72 | 1.44 | 2.94 | 1.74 | 6.65 | 1.82 | 10.7 | 1.63 | 5.67 | 1.17 | 3.17 | 11.6 |
